Measured values taken from US11477982B2, “2-amino-5-oxyalkyl-pyrimidine derivatives and their use for controlling undesired plant growth” (Bayer CropScience Aktiengesellschaft, priority 2017, dated 2022).

Columns and labels:
Assay type in all cases: in vivo
[1] = test system: AMARE: Amaranthus retroflexus; test: Post-emergence herbicidal effect
Summary of the method: (§1)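 Visual rating, made about 3 weeks after treatment against untreated plants, runs from 0% (like controls) to 100% (plants dead). WP or EC formulations were applied post-emergence as aqueous spray at 600 l/ha with 0.5% additive. Plants were at the one-leaf stage, 2 to 3 weeks after sowing in sandy loam.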

[2] = test system: AVEFA: Avena fatua; test: Post-emergence herbicidal effect
Summary of the method: as §1

[3] = test system: SETVI: Setaria viridis; test: Post-emergence herbicidal effect
Summary of the method: as §1

[4] = test system: ECHCG: Echinochloa crus-galli; test: Post-emergence herbicidal effect
Summary of the method: as §1

[5] = test system: ABUTH: Abutilon theophrasti; test: Post-emergence herbicidal effect
Summary of the method: as §1

[6] = test system: STEME: Stellaria media; test: Post-emergence herbicidal effect; conditions: dosage 320 g/ha
Summary of the method: as §1

[7] = test system: VERPE: Veronica persica; test: Post-emergence herbicidal effect; conditions: dosage 320 g/ha
Summary of the method: as §1

[8] = test system: VIOTR: Viola tricolor; test: Post-emergence herbicidal effect; conditions: dosage 320 g/ha
Summary of the method: as §1

[9] = test system: MATIN: Matricaria inodora; test: Pre-emergence herbicidal effect; conditions: for Herbicidal action against MATIN: pre-emergence, dosage 320 g/ha
Summary of the method: (§2)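 Seeds sown in pots and covered with soil; compounds formulated as WP or EC were sprayed onto the soil surface as aqueous suspension/emulsion with 0.5% additive at 600 l/ha water. Greenhouse growth for about 3 weeks, then visual scoring in % versus untreated controls (100% = plants died, 0% = like control).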

[10] = test system: SETVI: Setaria viridis; test: Pre-emergence herbicidal effect; conditions: for Herbicidal action against SETVI: dosage 320 g/ha
Summary of the method: as §2

[11] = test system: ECHCG: Echinochloa crus-galli; test: Pre-emergence herbicidal effect; conditions: for Herbicidal action against ECHCG: dosage 320 g/ha
Summary of the method: as §2

[12] = test system: LOLRI: Lolium rigidum; test: Pre-emergence herbicidal effect; conditions: for Herbicidal action against LOLRI: dosage 320 g/ha
Summary of the method: as §2

[13] = test system: ABUTH: Abutilon theophrasti; test: Pre-emergence herbicidal effect; conditions: for Herbicidal action against ABUTH: dosage 320 g/ha
Summary of the method: as §2

[14] = test system: POLCO: Polygonum convolvulus; test: Pre-emergence herbicidal effect; conditions: for Herbicidal action against POLCO: dosage 320 g/ha
Summary of the method: as §2

[15] = test system: STEME: Stellaria media; test: Pre-emergence herbicidal effect; conditions: for Herbicidal action against STEME: pre-emergence, dosage 320 g/ha
Summary of the method: as §2

[16] = test system: HORMU: Hordeum murinum; test: Pre-emergence herbicidal effect; conditions: for Herbicidal action against HORMU: pre-emergence, dosage 320 g/ha
Summary of the method: as §2

[17] = test system: AMARE: Amaranthus retroflexus; test: Pre-emergence herbicidal effect; conditions: for Herbicidal action against AMARE: pre-emergence, dosage 320 g/ha
Summary of the method: as §2

[18] = test system: AVEFA: Avena fatua; test: Pre-emergence herbicidal effect; conditions: dosage 320 g/ha
Summary of the method: as §2

[19] = test system: PHBPU: Ipomoea purpurea; test: Pre-emergence herbicidal effect; conditions: for Herbicidal action against PHBPU: dosage 320 g/ha
Summary of the method: as §2

[20] = test system: ALOMY: Alopecurus myosuroides; test: Pre-emergence herbicidal effect; conditions: for Herbicidal action against ALOMY: dosage 320 g/ha
Summary of the method: as §2

[21] = test system: VERPE: Veronica persica; test: Pre-emergence herbicidal effect; conditions: dosage 320 g/ha
Summary of the method: as §2

[22] = test system: VIOTR: Viola tricolor; test: Pre-emergence herbicidal effect; conditions: dosage 320 g/ha
Summary of the method: as §2

[23] = test system: LOLRI: Lolium rigidum; test: Post-emergence herbicidal effect
Summary of the method: as §1

[24] = test system: ALOMY: Alopecurus myosuroides; test: Post-emergence herbicidal effect
Summary of the method: as §1

[25] = Table 4b, pre-emergence as titled, dosage 80 g of a.i./ha
[26] = Table 4a, pre-emergence, dosage 20 g of a.i./ha
[27] = Table 4a, dosage 20 g of a.i./ha

SMILES	Herbicidal action against SETVI ([3]; dosage 320 g/ha)	Herbicidal action against ECHCG ([4]; dosage 320 g/ha)	Herbicidal action against ABUTH ([5]; dosage 320 g/ha)	Herbicidal action against STEME [6]	Herbicidal action against AMARE ([1]; dosage 320 g/ha)	Herbicidal action against VERPE [7]	Herbicidal action against VIOTR [8]	Herbicidal action against MATIN [9]	Herbicidal action against SETVI ([10]; pre-emergence)	Herbicidal action against ECHCG ([11]; pre-emergence)	Herbicidal action against LOLRI [12]	Herbicidal action against ABUTH [13]	Herbicidal action against POLCO [14]	Herbicidal action against STEME [15]	Herbicidal action against HORMU [16]	Herbicidal action against AMARE [17]	Herbicidal action against AVEFA [18]	Herbicidal action against PHBPU [19]	Herbicidal action against ALOMY ([20]; pre-emergence)	Herbicidal action against VERPE [21]	further results
Cc1ccc2c(c1)[C@H](Nc1ncc([C@H](C)O)c(N)n1)[C@@H](C)C2 (racemic) [drawing 11, reference compound]	–	–	–	–	–	–	–	–	–	–	–	–	–	–	–	–	–	–	–	–	Herbicidal action against AMARE ([1]; dosage 80 g/ha): 80%; Herbicidal action against AVEFA ([2]; dosage 80 g/ha): 0%; Herbicidal action against AVEFA ([2]; dosage 320 g/ha): 50%
CCc1ccc2c(c1)[C@H](Nc1ncc(C(C)(C)O)cn1)CC2 [Example 1.31]	90%	100%	90%	100%	100%	90%	90%	100%	100%	100%	100%	100%	100%	100%	100%	100%	100%	100%	100%	100%	Herbicidal action against VIOTR [22]: 100%
Cc1ccc2c(c1)[C@H](Nc1ncc(C(C)O)c(C)n1)CCC2 (stereo partly shown) [Example 1.48]	90%	100%	80%	90%	90%	90%	80%	100%	100%	100%	100%	100%	100%	100%	100%	100%	90%	90%	100%	100%	Herbicidal efficacy against MATIN [9, 25]: 70; Herbicidal efficacy against SETVI [10, 26]: 100; Herbicidal efficacy against SETVI [10, 25]: 70; Herbicidal efficacy against ECHCG [11, 26]: 80; Herbicidal efficacy against ECHCG [11, 25]: 90; Herbicidal efficacy against LOLRI [12, 27]: 90; Herbicidal efficacy against ABUTH [13, 27]: 90; Herbicidal efficacy against POLCO [14, 27]: 100; Herbicidal efficacy against STEME [15, 25]: 80; Herbicidal efficacy against HORMU [16, 25]: 20; Herbicidal efficacy against AMARE [17, 25]: 80; Herbicidal efficacy against PHBPU [19, 27]: 70; Herbicidal efficacy against ALOMY [20, 26]: 70; Herbicidal efficacy against ALOMY [20, 25]: 50; Herbicidal action against VIOTR [22]: 100%
CCc1ccc2c(c1)[C@H](Nc1ncc(C(C)O)c(C)n1)CC2 (stereo partly shown) [Example 1.50]	90%	100%	80%	100%	90%	90%	90%	100%	100%	100%	100%	100%	100%	100%	90%	100%	100%	100%	100%	100%	Herbicidal action against VIOTR [22]: 100%
Cc1nc(N[C@@H]2CCc3ccccc32)ncc1C(C)(C)O [Example 1.54]	80%	100%	80%	90%	90%	90%	90%	100%	100%	100%	100%	100%	100%	100%	100%	100%	80%	100%	100%	100%	Herbicidal action against VIOTR [22]: 100%
CCc1ccc2c(c1)[C@H](Nc1ncc(C(C)(C)O)c(C)n1)CC2 [Example 1.57]	90%	100%	90%	90%	100%	90%	90%	100%	100%	100%	100%	100%	100%	100%	100%	100%	100%	100%	100%	100%	Herbicidal action against VIOTR [22]: 100%
C=C(C)COC(C)(C)c1cnc(N[C@H]2c3cc(C)ccc3C[C@@H]2C)nc1 [Example 1.63]	100%	100%	90%	90%	100%	90%	90%	100%	100%	100%	100%	100%	100%	100%	90%	100%	90%	100%	100%	100%	Herbicidal action against VIOTR [22]: 100%
Cc1ccc2c(c1)[C@H](Nc1ncc(C(C)(C)O)c(N)n1)[C@@H](C)C2 [drawing 9, reference compound]	30%	10%	–	–	70%	–	–	–	–	–	–	–	–	–	–	–	–	–	–	–	Herbicidal action against ECHCG ([4]; dosage 80 g/ha): 0%; Herbicidal action against LOLRI ([23]; dosage 80 g/ha): 0%; Herbicidal action against LOLRI ([23]; dosage 320 g/ha): 0%; Herbicidal action against ABUTH ([5]; dosage 80 g/ha): 30%; Herbicidal action against AVEFA ([2]; dosage 80 g/ha): 0%; Herbicidal action against AVEFA ([2]; dosage 320 g/ha): 0%; Herbicidal action against ALOMY ([24]; dosage 80 g/ha): 0%; Herbicidal action against ALOMY ([24]; dosage 320 g/ha): 10%
Cc1ccc2c(c1)[C@H](Nc1ncc(C(C)(C)O)c(N)n1)[C@@H](C)C2 [drawing 10, reference compound]	30%	10%	–	–	70%	–	–	–	–	–	–	–	–	–	–	–	–	–	–	–	Herbicidal action against SETVI ([3]; dosage 80 g/ha): 0%; Herbicidal action against ECHCG ([4]; dosage 80 g/ha): 0%; Herbicidal action against LOLRI ([23]; dosage 80 g/ha): 0%; Herbicidal action against LOLRI ([23]; dosage 320 g/ha): 0%; Herbicidal action against ABUTH ([5]; dosage 80 g/ha): 30%; Herbicidal action against AMARE ([1]; dosage 80 g/ha): 60%; Herbicidal action against AVEFA ([2]; dosage 320 g/ha): 0%; Herbicidal action against ALOMY ([24]; dosage 80 g/ha): 0%; Herbicidal action against ALOMY ([24]; dosage 320 g/ha): 10%
